From patent publication US11596626B2, “Compound for use against pathogenic Neisseria and Haemophilus species and Moraxella catarrhalis” (priority 2017, dated 2023) come the findings set out here.

“Also recorded” adds a separate entry of the source.

In assay [1] the test system is multidrug-resistant N. gonorrhoeae isolate from Slovenia. The experiment in a line: Growth curves in liquid culture (optical density) vs DMSO control. The assay is classed as cell-based, Neisseria gonorrhoeae. The protocol:
Growth experiments with NQNO were conducted against Neisseria gonorrhoeae strain MS11 (Edwards, M., et al., Antigenic analysis of gonococcal pili using monoclonal antibodies, J Exp Med, 1984. 160(6): p. 1782-91) and a multidrug-resistant N. gonorrhoeae isolate from Slovenia (Unemo M, Golparian O, Potočnik M, Jeverica S. Treatment failure of pharyngeal gonorrhoea with internationally recommended first-line ceftriaxone verified in Slovenia, September 2011. Euro Surveill. 2012; 17(25):pii=20200), Neisseria macacae, and Lactobacillus brevis. The bacteria were inoculated in GC (Difco™ GC medium Ref. 228950, BD Becton Dickinson) and PPM broth (15 g/L Proteon Pepton, 1 g/L soluble starch, 5 g/L NaCl, 4 g/L KH2PO4, 1 g/L K2HPO4, pH 7.5) (Neisseriae) or TSB (BBL™ Trypticase Soy Broth Ref 211768, BD Becton Dickinson) (Lactobacillus) supplemented with solvent (DMSO) or the indicated concentrations of NQNO (5-50 04) and their growth at 37° C. was monitored over the course of 10 h by optical density readings in 30 minute intervals. […]
Before every experiment, bacteria were pre-cultured in 5 ml liquid medium for at least 2 hours then harvested and resuspended in PBS (phosphate buffered saline). Optical density (OD) was determined and a volume equal to an OD of 0.2 was inoculated into 5 ml of the respective medium. […] Optical density was determined every 0.5 h.

The test system of a further assay is Commensal Neisseria. As to the kind of experiment: Growth inhibition by area under the growth curve relative to solvent. The assay is classed as cell-based. As to conditions: 5-50 μM, FIG. 5. The method, then: Before every experiment, bacteria were pre-cultured in 5 ml liquid medium for at least 2 hours then harvested and resuspended in PBS (phosphate buffered saline). Optical density (OD) was determined and a volume equal to an OD of 0.2 was inoculated into 5 ml of the respective medium. NQNO was added at the indicated amounts (5-50 μM). DMSO level was adjusted to 1% of final concentration. Samples were incubated for either 10.5 hours, until they reached stationary phase (three measured values in stationary phase) or until they reached an OD of 2.5. Optical density was determined every 0.5 h.
Growth experiments with the compounds represented by the Formulas (4) to (7) were conducted against various bacteria, including clinical isolates of N. gonorrhoeae including high priority 3rd generation cephalosporin/fluoroquinolone-resistant strains, strains isolated from disseminated disease settings, and commensal Neisseria and other commensal bacteria and evaluated (FIGS. 5 and 11). Growth of the indicated bacteria was measured as described in Example 1. Growth inhibition was quantified by measuring the “area under the curve” in the presence of the indicated concentrations of the respective compound (5-50 μM) relative to growth in the presence of the solvent only. Black areas indicate growth inhibition with <30% growth compared to control.

Another assay has as its system N. gonorrhoeae. The experiment in a line: Immunofluorescence staining of upper vaginal tract sections of infected CEAtg mice. The assay is classed as in vivo, Neisseria gonorrhoeae. To be noted: 20 μl of 50 μM 2 h after infection, tissue 20 h later, FIGS. 8 and 9. The protocol: 6 to 8 week old, female CEA-transgenic mice were infected with N. gonorrhoeae. 2 h after infection, the animals were treated with 20 μl buffer containing solvent (DMSO) or 50 μM NQNO (Compound represented by the Formula (5)). 20 h later, the genital tract was excised and cryosections were stained for cell nuclei (Hoechst; blue), human CEA (red) and N. gonorrhoeae (gonococci, green) (FIG. 8).
Additional cryosections from the same samples were stained for cell nuclei (Hoechst; blue), human collagen (red) and N. gonorrhoeae (gonococci, green) (FIG. 9).
In particular, in the above experiments the genital tract of infected mice was excised and immediately fixed with 4% paraformaldehyde for at least 24 h. The fixed tissue was sequentially transferred to 10% sucrose, 0.05% cacodylic acid for 1 h at 4° C., to 20% sucrose for 1 h at 4° C., and then into 30% sucrose at 4° C. overnight. Organs were mounted in the embedding medium (Cryo-M-Bed; Bright Instrument, Huntingdon, UK) and frozen at −20° C. 10 μm thick sections were cut at −20° C. using a cryostat (Vacutom HM500, Microm, Germany). Sections were stained with a mouse monoclonal antibody against collagen type IV (clone M3F7; dilution 1:200) together with a polyclonal rabbit antibody against N. gonorrhoeae (dilution 1:100). […]

Regarding `CCCCCCCCCc1cc(=O)c2ccccc2n1O` [NQNO, 1-Hydroxy-2-nonylquinolin-4(1H)-one], the “Concentration leading to complete growth inhibition” value in assay [1] (37° C., 10 h, FIG. 2) is not above 5 µM; in assay [1] (mass concentration given for 5 μM) it was less than 1.4 µg/mL. Also, the “Growth inhibition (area under the curve relative to solvent)” value with Commensal Neisseria is reported as “not compromised”. The “Gonococci on the mucosal surface (fluorescence microscopy)” value in the assay with N. gonorrhoeae is “hardly any gonococci could be detected; also recorded: no gonococci could be detected”.
